Source: US20170342061A1 (CHONGQING PHARMACEUTICAL INDUSTRIAL RESEARCH INSTITUTE CO., …, priority 2014, published 2017)

Test: Stability testing of crystal form I of Canagliflozin
Assay type: physicochemical
[1] = placed at 25 ± 2° C. and a humidity of RH92.5% for 30 days
[2] = placed at 40 ± 2° C. for 30 days
[3] = placed at 60 ± 2° C. for 30 days

In the case of `Cc1ccc([C@@H]2O[C@H](CO)[C@@H](O)[C@H](O)[C@H]2O)cc1Cc1ccc(-c2ccc(F)cc2)s1` [crystal form I of Canagliflozin, 1-(β-D-glucopyranosyl)-4-methyl-3-[5-(4-fluorophenyl)-2-thienylmethyl]benzene], the “HPLC change before placed” value (before being placed at 25 ± 2° C. and a humidity of RH92.5% for 30 days) is reported as 99.89%, the “HPLC change before placed” value (before being placed at 40 ± 2° C. for 30 days) is reported as 99.89% and the “HPLC change before placed” value (before being placed at 60 ± 2° C. for 30 days) is reported as 99.89%. For the same compound, the stability (overall conclusion from the stability table) was “good stability”, the “HPLC change after placed” value [1] was 99.89% and the crystal form [1] was “Crystal form I”. For the same compound, the “whether the appearance changed” value [1] was “No change”, the “whether there being apparent moisture absorption” value [1] was “No apparent” and the “HPLC change after placed” value [2] was 99.88%. The crystal form [2] was “Crystal form I”, the “whether the appearance changed” value [2] was “No change” and the “whether there being apparent moisture absorption” value [2] was “No apparent”. For the same compound, the “HPLC change after placed” value [3] was 99.87%, the crystal form [3] was “Crystal form I” and the “whether the appearance changed” value [3] was “No change”. For the same compound, the “whether there being apparent moisture absorption” value [3] was “No apparent”.
